One compound from patent US8318812B2, “Therapeutic agents for the treatment of lymphoid malignancies” (The Ohio State University Research Foundation, priority 2006, dated 2012) can be followed below.

Each structure is given as a SMILES string.

Assay [1] relates to CD19+ B cells from CLL patients. In kind it is cell-based. To be noted: 0-10 uM FTY720; 15 CLL patients. The method, then: Cells: Blood was obtained from patients with B-cell CLL with informed consent under a protocol approved by the hospital internal review board. All patients examined in this series had immunophenotypically defined CLL as outlined by the modified 96 National Cancer Institute criteria. B-CLL cells were isolated from freshly donated blood using ficoll density gradient centrifugation (Ficoll-Paque Plus, Amershan Biosciences, Piscataway, N.J.). Isolated mononuclear cells were incubated in RPMI 1640 media (Gibco/Invitrogen, Carlsbad, Calif.) supplemented with 10% heat-inactivated fetal bovine serum (FBS, Hyclone Laboratories, Logan, Utah), 2 mM L-glutamine (Invitrogen, Carlsbad, Calif.), and penicillin (100 U/mL)/streptomycin (100 μg/ml) [Sigma-Aldrich, St. Louis] at 37° C. in an atmosphere of 5% CO2. Freshly isolated B-CLL cells were used in all experiments described herein. Enriched B-lymphocyte fractions were prepared by using MACS negative selection kit by Miltenyi Biotech (Auburn, Calif.) or by “Rosette-Sep” kit from Stem Cell Technologies (Vancouver, British Columbia, Canada) according to the manufacturer's instructions. Human B-lymphocyte cell lines Raji and Ramos were obtained from ATCC (Manassas, Va.) and the MEC cells were obtained from German cell line bank (Braunschweig, Germany). The 697-neo and 697-Bcl-2 cell lines were kind gift from Dr. John Reed (Burnham Institute, La Jolla, Calif.). Cells were cultured at 37° C. in an atmosphere of 5% CO2 in RPMI 1640 media (Gibco/Invitrogen, Carlsbad, Calif.) supplemented with 10% fetal bovine serum (Gibco/Invitrogen).
Analysis of cell viability and apoptosis: The cell viability was carried out by dual staining with Annexin V conjugated to flourescein-isothyocyanate (FITC) and Propidium iodide (PI) as described previously. Briefly, 1×10^6 cells were stained with Annexin V-FITC (BD Pharmingen) and Propidium iodide (BD Pharmingen) for 15 minutes in dark and analyzed by flow cytometry using a Beckman-Coulter EPICS XL cytometer (Beckman-Coulter, Miami, Fla.). Apoptotic cells were identified as Annexin V and/or PI positive cells. Cells excluding both FITC and PI were considered to be viable. The Annexin V^−/PI^− cells are represented as % live cells normalized to untreated controls.
B-CLL cells are reported to be resistant to apoptosis in-vivo. To systematically analyze the effects of FTY720 on B-CLL cells, purified CD19^+ cells from B-CLL patients were incubated with increasing concentrations of FTY720 ranging from 0, 0.5, 1, 1.5, 2.5, 5 or 10 uM. The cytotoxic effects were independently determined by flow cytometry using propidium iodide (PI) and Annexin V conjugated FITC reagents. Populations excluding both PI and Annexin V-FITC staining were considered viable. […]

Another assay concerns Mino cells. The assay is described as follows: Cell cycle analysis by flow cytometry in Mino cells. In kind it is cell-based, Human. To be noted: compared to vehicle control. As to the method:
Deregulated cyclin D1 expression contributes to cell cycle defects in MCL cells. […] Mino cells were treated with FTY720 for 12, 24 and 48 hrs and subjected to cell cycle analysis by flow cytometry. […] This decrease in S phase is entry is further reflected by accumulation of cells in G1 phase of the cell cycle.
(In general: Flow cytometry measures light scatter and fluorescence of single cells or particles in a stream.)

Assay [2] concerns MEC, Ramos, Raji, 697 and RS4-11 B cell lines. In words: Annexin V/PI viability by flow cytometry in B cell lines. The assay is classed as cell-based, Human. To be noted: 0.6-10 uM FTY720; 24 and 48 hours. As to the method: Cells: Blood was obtained from patients with B-cell CLL with informed consent under a protocol approved by the hospital internal review board. All patients examined in this series had immunophenotypically defined CLL as outlined by the modified 96 National Cancer Institute criteria. B-CLL cells were isolated from freshly donated blood using ficoll density gradient centrifugation (Ficoll-Paque Plus, Amershan Biosciences, Piscataway, N.J.). Isolated mononuclear cells were incubated in RPMI 1640 media (Gibco/Invitrogen, Carlsbad, Calif.) supplemented with 10% heat-inactivated fetal bovine serum (FBS, Hyclone Laboratories, Logan, Utah), 2 mM L-glutamine (Invitrogen, Carlsbad, Calif.), and penicillin (100 U/mL)/streptomycin (100 μg/ml) [Sigma-Aldrich, St. Louis] at 37° C. in an atmosphere of 5% CO2. Freshly isolated B-CLL cells were used in all experiments described herein. […]
Analysis of cell viability and apoptosis: The cell viability was carried out by dual staining with Annexin V conjugated to flourescein-isothyocyanate (FITC) and Propidium iodide (PI) as described previously. Briefly, 1×10^6 cells were stained with Annexin V-FITC (BD Pharmingen) and Propidium iodide (BD Pharmingen) for 15 minutes in dark and analyzed by flow cytometry using a Beckman-Coulter EPICS XL cytometer (Beckman-Coulter, Miami, Fla.). […]

The subject of assay [3] is AML cell lines. The assay is described as follows: Cell cycle analysis (propidium iodide DNA content) in AML cell lines. To be noted: 1 uM and 10 uM, 48 hours. The assay is classed as cell-based. The method, then: Cell suspensions were treated with vehicle control, 1 uM, and 10 uM FTY720 for 48 hours. After fixation in ethanol, samples were stained with propidium iodide, and assessed for DNA content. Percentage of cells in subG1, G1, S, and G2-M for each cell line are depicted (FIG. 11A) with representative plots below for MV411 (FIG. 11B). Although cell cycle arrest is not seen, induction of apoptosis is noted by the increased fraction of sub G1 with FTY720 treatment.

In assay [4] the test system is AML cell lines. The assay is described as follows: Annexin V/PI apoptosis assay in AML cell lines. Conditions: 48 hours. In kind it is cell-based. As to the method: Cell cultures were exposed to vehicle control and increasing doses of FTY720 for 48 hours. Cells were then stained with Annexin V (AnnV) and propidium iodide (PI), and analyzed using routine flow cytometry. Percentage of viable cells (AnnV− PI−), cells undergoing apoptosis (AnnV+ PI−), and necrotic cells (AnnV+ PI+) are represented for each cell line studied in FIG. 10A.

For the compound `CCCCCCCCc1ccc(CCC(N)(CO)CO)cc1.Cl` [FTY720, 2-Amino-2-[2-(4-octylphenyl)ethyl]propane 1,3-diol hydrochloride], the “viability of CD19+ B cells from CLL patients” value in assay [1] was “dose and time dependent decrease in viability”. Besides, in the assay on Mino cells, the “reduction in cells in S-phase” value is recorded as ~48%. Also, the “viable cells (Annexin V-/PI-)” value in assay [2] was “dose dependent inhibition of viable cells”. Also, the “cell cycle arrest in AML cell lines” value in the assay with AML cell lines [3] was “does not cause cell cycle arrest”. Besides, the “apoptosis in AML cell lines” value in the assay on AML cell lines [4] is reported as “induces apoptosis”.
